What all share (type): cell-based, human
One series deals with NFκB. Briefly: Activated NFκB in TNFα- or VEGF-treated HIAECs, TransAM assay. On the procedure:
Then, the amount of NFκB was determined using a TransAM™ NFκB p65/NFκB p50 Transcription Factor Assay Kit and a Nuclear Extract Kit from Active Motif North America, Carlsbad, Calif., according to the manufacturer's instructions. Briefly, a nuclear extract of the cells was prepared using the Nuclear Extract Kit. Then, the nuclear extract was added to the wells of the 96-well plate of the TransAM™ kit. Oligonucleotide containing an NFκB consensus binding site was immobilized in the wells, and the activated NFκB contained in the nuclear extract was bound to the oligonucleotide. Then, an antibody directed against the NFκB p65 or p50 subunit was added, and the NFκB complex bound to the oligonucleotide was detected. A secondary antibody conjugated to horseradish peroxidase (HRP) was next added to provide a colorimetric readout that was quantified by spectrophotometry (measurement at 450 nm).
Passage 8 (human iliac artery endothelial cells (HIAECs) (obtained from ATCC; catalog no. CC-2545) were grown to confluence in 25 cm^2 flasks in EGM-2 medium. Eighteen hours prior to the experiment, the medium was replaced with EGM-2 medium containing 0.1% FCS plus heparin, GA1000 (gentamycin) and bovine pituitary extract (all from Cambrex) to place the cells in a resting state. To perform the experiment the medium was aspirated from the flasks, and the following additives were added to the flasks in fresh medium (total volume of 5 ml/flask): 15 μg/ml of the compound of formula II (Cpd II) or 10 μM LY 294002. The flasks were incubated 2 hours at 37° C., 5% CO2 After this incubation, VEGF or TNFα was added to give a final concentration 10 ng/ml, and the flasks were incubated for an additional 30 minutes. Then, the amount of NFκB was determined using a TransAM™ NFκB p65/NFκB p50 Transcription Factor Assay Kit and a Nuclear Extract Kit from Active Motif North America, Carlsbad, Calif., as described in Example 9.

The test system of another series is IL-4. Briefly: Custom AntibodyArray, TRiPS cells: IL-4. Conditions: 15 μg/ml, 30 minutes. The method, then:
Day 18 TRiPS cells, 1×10^6, were incubated for 30 minutes at 37° C., either with nothing added (“Nil”), with 1 μl CD3/CD28 Dynabeads (Dynal, Oslo, Norway) (“CD3/CD28 beads”) per 100,000 cells, or with CD3/CD28 beads and 15 μg/ml of the compound of formula II (Cpd II). After the incubation, the cells were lysed in Cell-Lytic Mammalian Cell Extraction Reagent (Sigma). After centrifugation to pellet cellular debris, the supernatants (cell extracts) were obtained.
The cell extracts (supernatants) were then analyzed using a Custom AntibodyArray™ manufactured by Hypromatrix Inc., Worcester, Mass., following the manufacturer's instructions. The Custom AntibodyArray™ is a nylon membrane blotted with antibodies to the proteins listed below. Briefly, the cell extracts were incubated with duplicate Custom AntibodyArray™'s for 2 hours at room temperature with slow shaking, followed by three washes with Tris buffer (150 mM NaCl, 25 mM Tris, 0.05% Tween-20, pH 7.5). HRP-labeled antibodies specific for phosphorylated-tyrosine, phosphorylated-serine and phosphorylated-threonine in Tris buffer were added, and the arrays incubated for 2 hours. After three more washes with Tris buffer, a peroxidase-reactive luminescent substrate was added. The arrays were visualized by exposure to X-ray film. Densitometry of the X-ray films was measured by scanning and computer analysis.

The test system of another series is HUVECs. Briefly: Cell death of HUVECs in the TNFα/IL-8 experiment. Conditions: highest dose (30 μg/ml). The method, then: Passage 4 HUVECs, human source lot number 8710 (obtained from ATCC), were put into the wells of a 24-well tissue culture plate at 5,000 cells/well in EGM-2 medium (obtained from Cambrex) and cultured for 72 hours at 37° C. and 5% CO2. […] After incubation for 1 hour at 37° C. and 5% CO2, TNFα (obtained from Pierce) was added to give a final concentration of 10 ng/ml, and the cells were incubated for an additional 18 hours at 37° C. and 5% CO2. After this incubation, the supernatants were collected, and the amount of IL-8 in the supernatants determined by ELISA as described in Example 4.

Structures are written as SMILES.

As to `COC(=O)C(c1ccc(-c2ccccc2)cc1)C1CCCCN1` (stereo not shown) [Cpd II], the “Mean OD 450 nm (NFκB)” value is 0.302 ± 0.003 in the series with NFκB (TNFα 10 ng/ml + 15 μg/ml, control 0.174, TNFα only 0.881) and 0.066 + 0.005 in the series on NFκB (VEGF 10 ng/ml + 15 μg/ml, control 0.174, VEGF only 0.220). Also, the “Effect of Cpd II on the protein in CD3/CD28 stimulated TRiPS cells” value in the series on IL-4 was “Decreased level back to basal levels (Nil control)”. Also, the cell death entry with HUVECs was “some cell death”.
